# Where a name gives a salt, the structure may show the parent alone.
# What was measured:
# enkephalinase = target: T1, enkephalinase (Mus musculus, UniProt Q61391); assay: Inhibitory effect on enkephalinase; type: biochemical, ddY male mice; conditions: substrate Suc-Ala-Ala-Phe-AMC 10^-4 M, 37° C., 60 minutes, mouse striata enzyme
# T1 construct: striata obtained from ddY male mice; from tissue; host or cells: striata of ddY male mice (washed 20000 g membrane pellet, not purified)
# T1 sequence (Q61391 1-750): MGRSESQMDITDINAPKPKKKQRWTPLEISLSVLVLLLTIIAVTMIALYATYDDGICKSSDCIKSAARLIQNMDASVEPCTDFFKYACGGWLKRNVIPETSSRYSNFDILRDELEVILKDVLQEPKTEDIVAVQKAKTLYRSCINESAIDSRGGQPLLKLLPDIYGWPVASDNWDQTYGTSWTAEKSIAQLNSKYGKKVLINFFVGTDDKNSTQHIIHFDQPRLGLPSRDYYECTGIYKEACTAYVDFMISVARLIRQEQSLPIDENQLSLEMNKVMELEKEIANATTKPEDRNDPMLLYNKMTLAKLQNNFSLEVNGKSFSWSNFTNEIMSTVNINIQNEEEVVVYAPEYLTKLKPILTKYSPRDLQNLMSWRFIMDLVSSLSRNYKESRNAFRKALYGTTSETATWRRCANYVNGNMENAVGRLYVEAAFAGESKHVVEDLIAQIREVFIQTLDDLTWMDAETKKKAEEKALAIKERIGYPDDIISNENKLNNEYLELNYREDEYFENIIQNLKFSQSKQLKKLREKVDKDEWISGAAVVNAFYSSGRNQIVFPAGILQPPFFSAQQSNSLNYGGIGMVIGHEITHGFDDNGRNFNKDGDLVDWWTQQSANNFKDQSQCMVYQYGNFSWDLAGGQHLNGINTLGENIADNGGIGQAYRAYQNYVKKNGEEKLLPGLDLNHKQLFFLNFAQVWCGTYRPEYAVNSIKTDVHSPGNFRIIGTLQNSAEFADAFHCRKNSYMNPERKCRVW
# Experimental: That is, to striata obtained from ddY male mice (weighing 28~30 g), Tris hydrochloric acid buffer solution (referred to "Tris buffer" hereafter) was added. The mixture was homogenised and centrifuged (1000 g×5 minites). The supernatant obtained was further centrifuged (20000 g×1 minutes). The resulting pellet was washed with cold Tris buffer and resuspended in a fresh Tris buffer to use as enzyme source of enkephalinase.
# Incubation at 37° C. for 60 minutes was started by adding thereto […] of enzyme solution (×30 dilution of the above enzyme source) and 50 μl of a substrate solution containing succinyl-alanyl-alanyl-phenylalanyl (7-amido-4-methyl)coumarin (i.e. Suc-Ala-Ala-Phe-AMC, final concentration: 10^-4 M) dissolved in 50 mM HEPES/NaOH buffer (pH 7.4). The reaction was stopped by the addition of thiorphan (10^-6 M) and by heating the samples at 95° C. for 15 minutes. […] Blanks values were obtained by the same procedure as above described by using thiorphan (10^-6 M) instead of the test compound.
# [1] = test system: bradykinin-induced biting-like response; assay: Inhibitory effect on bradykinin-induced biting-like response; type: in vivo, male Spraque-Dawley rats; conditions: for Number of rats which did not show the biting-like response, 30 minutes after p.o. / Number of rats which did not show the biting-like response, 60 minutes after p.o. / Number of rats which did not show the biting-like response, 90 minutes after p.o. / Number of rats which did not show the biting-like response, 120 minutes after p.o.: 100 mg/kg p.o., number of rats 8; for Number of rats which did not show the biting-like response, 10 minutes after i.p. / Number of rats which did not show the biting-like response, 40 minutes after i.p. / Number of rats which did not show the biting-like response, 70 minutes after i.p. / Number of rats which did not show the biting-like response, 100 minutes after i.p.: 10 mg/kg i.p., number of rats 5 (Example 1), 8 (Example 12(5))
# Experimental: The experiment was carried out according to the method as described in Journal of Pharmacological Methods, Z, 271 (1982). That is, male Spraque-Dawley rats (weighing 200~300 g) were used. Implantation of the bradykinin (0.63~1.25 μg in 0.5~1.0 μl of distilled water) - filled cannula onto the tooth pulp and the fixation of it on the lower incisor surfaces were carried out under ethyl ether anesthesia. A micro-application of bradykinin onto the tooth pulp produced biting-like response and some other aversive behaviors such as jumping, struggling, rubbing, scratching, escape, head-jerk and body-jerk within 1 minute.
# The test compounds suspended in 0.5% carboxymethyl cellulose solution were administered either intraperitoneally or orally. After regular intervals bradykinin was administered.
# [2] = acute toxicity (LD50), intraperitoneal injection in mice; conditions: mouse, in vivo, ip
IC50 (enkephalinase) [nM],Structure (SMILES),other results
13,"O=C(C[C@H](NC(=O)C(CS)Cc1ccccc1)C(=O)O)Nc1ccccc1 (stereo partly drawn) [Example 12, N-(3-mercapto-2RS-benzylpropionyl)-β-anilino-L-aspartic acid and the corresponding α-sodium salt]",
24,"CN(C)c1ccc(NC(=O)C[C@H](NC(=O)C(CS)Cc2ccccc2)C(=O)O)cc1 (stereo partly drawn) [12(7), N-(3-mercapto-2RS-benzylpropionyl)-β-[4-(N,N-dimethylamino)anilino]-L-aspartic acid]",
35,"O=C(O)CC[C@H](NC(=O)C(CS)Cc1ccccc1)C(=O)Nc1ccc(Cl)cn1 (stereo partly drawn) [3(4), N-(3-mercapto-2RS-benzylpropionyl)-L-glutamic acid α-(5-chloropyridin-2-yl)amide]",
21,"O=C(C[C@H](NC(=O)C(CS)Cc1ccccc1)C(=O)O)Nc1ccc(C(F)(F)F)cc1 (stereo partly drawn) [12(8), N-(3-mercapto-2RS-benzylpropionyl)-β-(4-trifluoromethylanilino)-L-aspartic acid]",
68,"O=C(CC[C@H](NC(=O)C(CS)Cc1ccccc1)C(=O)O)Nc1ccccc1 (stereo partly drawn) [Example 11, N-(3-mercapto-2RS-benzylpropionyl)-γ-anilino-L-glutamic acid α-sodium salt]",
190,"O=C(O)CC[C@H](NC(=O)C(CS)Cc1ccccc1)C(=O)Nc1cnccn1 (stereo partly drawn) [3(9), N-(3-mercapto-2RS-benzylpropionyl)-L-glutamic acid α-(pyrazin-2-yl) amide]",
50,"COc1ccc(NC(=O)[C@H](CC(=O)O)NC(=O)C(CS)Cc2ccccc2)cc1 (single isomer, unassigned) [8(4), N-(3-mercapto-2RS-benzylpropionyl)-α-(4-methoxyanilino)-L-aspartic acid]",
2.8,"O=C(C[C@H](NC(=O)C(CS)Cc1ccccc1)C(=O)O)Nc1ccc(I)cc1 (stereo partly drawn) [12(5), N-(3-mercapto-2RS-benzylpropionyl)-β-(4-iodoanilino)-L-aspartic acid]","Number of rats which did not show the biting-like response, 10 minutes after i.p. [1]: 4; Number of rats which did not show the biting-like response, 40 minutes after i.p. [1]: 2; Number of rats which did not show the biting-like response, 70 minutes after i.p. [1]: 1; Number of rats which did not show the biting-like response, 100 minutes after i.p. [1]: 0"
21,"O=C(O)CC[C@H](NC(=O)C(CS)Cc1ccccc1)C(=O)Nc1ccccc1 (stereo partly drawn) [Example 1, N-(3-mercapto-2RS-benzylpropionyl)-α-anilino-L-glutamic acid]","Number of rats which did not show the biting-like response, 10 minutes after i.p. [1]: 4; Number of rats which did not show the biting-like response, 40 minutes after i.p. [1]: 4; Number of rats which did not show the biting-like response, 70 minutes after i.p. [1]: 3; Number of rats which did not show the biting-like response, 100 minutes after i.p. [1]: 1"
23,"NS(=O)(=O)c1ccc(NC(=O)[C@H](CCC(=O)O)NC(=O)C(CS)Cc2ccccc2)cc1 (stereo partly drawn) [3(8), N-(3-mercapto-2RS-benzylpropionyl)-α-(4-sulfamoylanilino)-L-glutamic acid]",

# Second part, the molecule before the results:
Structure (SMILES),IC50 (enkephalinase) [nM],other results
"O=C(O)CC[C@H](NC(=O)C(CS)Cc1ccccc1)C(=O)Nc1nc2ccccc2s1 (stereo partly drawn) [2(10), N-(3-mercapto-2RS-benzylpropionyl)-L-glutamic acid α-(2-benzthiazolyl) amide]",44,
"O=C(O)CC[C@H](NC(=O)[C@@H](CSC(=O)C(c1ccccc1)c1ccccc1)Cc1ccccc1)C(=O)Nc1ccccc1 [13(5), N-(3-diphenylacetylthio-2S-benzylpropionyl)-α-anilino-L-glutamic acid]",,"Number of rats which did not show the biting-like response, 30 minutes after p.o. [1]: 1; Number of rats which did not show the biting-like response, 60 minutes after p.o. [1]: 7; Number of rats which did not show the biting-like response, 90 minutes after p.o. [1]: 1; Number of rats which did not show the biting-like response, 120 minutes after p.o. [1]: 1"
"O=C(O)CC[C@H](NC(=O)C(CS)CC1CCCCC1)C(=O)Nc1ccccc1 (stereo partly drawn) [1(1), N-(3-mercapto-2RS-cyclohexylmethyl-propionyl)-α-anilino-L-glutamic acid]",400,
"O=C(O)CC[C@H](NC(=O)[C@@H](CSC1OC(=O)c2ccccc21)Cc1ccccc1)C(=O)Nc1ccccc1 (stereo partly drawn) [Example 16, N-[3-(phthalid-3yl)thio-2S-benzylpropionyl]-α-anilino-L-glutamic acid]",,"LD50 [2]: 500 to 1000 mg/kg; Number of rats which did not show the biting-like response, 30 minutes after p.o. [1]: 3; Number of rats which did not show the biting-like response, 60 minutes after p.o. [1]: 6; Number of rats which did not show the biting-like response, 90 minutes after p.o. [1]: 2; Number of rats which did not show the biting-like response, 120 minutes after p.o. [1]: 0"
"Cc1ccc(CC(CS)C(=O)N[C@@H](CCC(=O)O)C(=O)Nc2ccccc2)cc1 (stereo partly drawn) [1(3), N-[3-mercapto-2RS-(4-methylbenzyl)-propionyl]-α-anilino-L-glutamic acid]",71,
"O=C(O)CC[C@H](NC(=O)C(CS)Cc1ccccc1)C(=O)Nc1ccc(C(=O)O)cc1 (stereo partly drawn) [3(2), N-(3-mercapto-2RS-benzylpropionyl)-α-(4-carboxyanilino)-L-glutamic acid]",3.6,
"COc1ccc(CC(CS)C(=O)N[C@@H](CCC(=O)O)C(=O)Nc2ccccc2)cc1 (stereo partly drawn) [1(2), N-[3-mercapto-2RS-(4-methoxybenzyl)-propionyl]-α-anilino-L-glutamic acid]",51,
"O=C(O)CC[C@H](NC(=O)C(CS)Cc1ccccc1)C(=O)Nc1cccc2ccccc12 (stereo partly drawn) [2(7), N-(3-mercapto-2RS-benzylpropionyl)-L-glutamic acid α-(1-naphthyl)amide]",350,
"COC(=O)C[C@H](NC(=O)C(CS)Cc1ccccc1)C(=O)Nc1ccc2c(c1)C(c1ccccc1)=NCCN2C (stereo partly drawn) [Example 4, N-(3-mercapto-2RS-benzylpropionyl)-L-aspartic acid α-(2,3-dihydro-1-methyl-5-phenyl-1H-1,4-benzodiazepin-7yl)amide β-methyl ester]",150,
